# Assays:
# telomerase = molecular target: T1, telomerase (Homo sapiens, UniProt O14746); experiment: Inhibition of telomerase activity by TRAP-assay (telomeric repeat amplification, extracts of cervical carcinoma cell lines SiHa, C33A, CaSki, HeLa); type: biochemical; conditions: concentration at which inhibition of telomerase activity is 50%
# T1 construct: telomeric repeats added to an oligonucleotide by telomerase in the cell extract; endogenous in cells; host or cells: SiHa, C33A, CaSki and HeLa cervical carcinoma cell extracts (CHAPS lysis)
# Method: To test the inhibition of telomerase compounds prepared in this way, we used the method of amplification added telomeric repeats (TRAP-analysis). TRAP-analysis is a standard method for determining the activity of telomerase, due to some modification this method could be semi quantitative. The choice of method for detection of telomerase activity was determined by its wide coverage in the worlds literature, almost sensitivity, as well as the availability of equipment and reagents.
# Telomeric repeats amplification protocol can be divided into three main steps: primer extension, amplification of the resulting product (s) and detection. In step lengthening telomeric repeats added to an oligonucleotide by telomerase in the cell extract. Telomerase recognizes it as a substrate (TS). In step of amplification of extension products of TS oligonucleotide by telomerase false signals may appear due to amplification of telomeres of chromosomes possibly have contained in the cell extract. To avoid this, the 5′-end of the oligonucleotide TS has no telomeric sequence, which prevents it to contact with telomeres, but is recognized as a telomerase substrate. Since human telomerase adds a series repeats with six nucleotides, the resulting lengthening of TS oligonucleotide by telomerase set of DNA fragments that differ in length synthesized. […]
smiles,measurement,setting,value
"C=CCN1C(=O)/C(=C/c2ccccn2)N=C1SCCSC1=N/C(=C\c2ccccn2)C(=O)N1CC=C [Example 3, (5Z,5′Z)-2,2′-(ethan-1,2-diyldisulfanyldiyl)bis(5-(pyridine-2-ylmethylene)-3-allyl-3,5-dihydro-4H-imidazole-4-on)]",melting point,,187 °C
same,IC50,telomerase,2000 nM

# Reference: patent publication US20130109861A1, “TELOMERASE INHIBITORS AND A METHOD FOR THE PREPARATION THEREOF” (GOSUDARSTVENNOE UCHEBNO-NAUCHNOE UCHREZHDENIE KHIMICHESKIJJ …, priority 2010, published 2013)
